Results reported in patent publication US20070128294A1, “Treatment and prevention of liver adverse conditions using gallium” (priority 2005, published 2007).
“Also recorded” adds a separate entry of the source.

Assays:
[1] = test system: adjuvant arthritic rats (adjuvant-induced hepatomegaly); assay: Adjuvant-induced acute arthritis model: hepatomegaly, liver weight and histopathology; assay type: in vivo
Excerpt: A preclinical animal model was used to test the efficacy of oral gallium maltolate in treating hepatomegaly associated with adjuvant-induced acute arthritis. Male Lewis rats were used in the study. The study design was described in detail by Bendele et al. (1999) Toxicologic Pathology 27(1):134-142 and by Bendele (2001) J. Musculoskel. Neuron. Interact. 1(4):377-385.
Male Lewis rats (7 per group for gallium maltolate, 4 per group for normal controls and dexamethasone-treated controls) were injected with 100 μL of Freund's complete adjuvant/lipoidal amine (FCA/LA) subcutaneously at the base of the tail on study day 0 under anesthesia. There is a rapid onset (7 d) of arthritic symptoms in this model, including ankle inflammation, liver and spleen hypertrophy, bone resorption, and mild cartilage destruction.
(§1) Prophylactic treatment was initiated seven days prior to adjuvant injection by dosing with control vehicle or gallium maltolate (100 or 300 mg/kg gallium maltolate, containing 16 or 47 mg/kg gallium, respectively, in suspension with 1% carboxymethyl cellulose) seven days prior to adjuvant injection. Dosing was by daily oral gavage until termination. The dexamethasone-treated control animals were injected with a daily oral dose of dexamethasone (0.1 mg/kg). Body weights were measured regularly during the course of the study to track the effect of the drugs on the weight loss induced by the developing adjuvant disease, and dose volumes were adjusted accordingly. Prior to the onset of swelling, but after the establishment of systemic disease (about 7 days after adjuvant injection), caliper measurements were made of ankle joints. Ankles were measured every day until 14 days post-adjuvant injection when the rats were anesthetized and sacrificed. Serum was harvested one hour after final dosing for gallium quantitation. Hind paws, liver, and spleen were weighed, fixed, and processed for histopathologic evaluation. Adjuvant arthritic ankles were given scores of 0-5 (0=normal; 5=severe) for inflammation and bone resorption. Splenic changes of inflammation, increased extramedullary hematopoiesis, and lymphoid atrophy were scored 0-5 using criteria similar to those used for scoring of inflammation. The primary endpoint was hepatomegaly, as determined by liver weight and histopathology.

[2] = test system: Con A-treated mice (acute liver injury); assay: Concanavalin A-induced acute immune-mediated hepatitis; assay type: in vivo, Balb/c male mice; settings: 150 mg/kg oral gavage for 4 days prior to Con A
Method: Concanavalin A (Con A) is a powerful mitogen for and activator of T lymphocytes and its intravenous administration to mice initiates an acute immune-mediated hepatitis. The effect of preemptive gallium maltolate administration on the development of acute liver injury was assessed in vivo.
Liver injury was induced by injecting 6-8 week old Balb/c male mice (weight 25 g) with Con A, 25 mg/kg in 250 μl of phosphate-buffered saline via the tail vein. The test animals were divided into three groups of 2-8 mice each: • (a) Con A treatment • (b) Vehicle (1% carboxymethyl cellulose solution in water) per oral gavage for 4 days prior to Con A treatment • (c) 150 mg/kg gallium maltolate per oral gavage for 4 days prior to Con A treatment
For determination of serum alanine aminotransferase (ALT) levels, blood was drawn from different groups of mice 16 hours after administering Con A and measured by a commercially available enzyme assay. […] (FIG. 4). Histological assessment of centrilobular necrosis of the liver was rated for severity on a scale of 0 to 3.

[3] = test system: human patient exposed to a liver-damaging agent; assay: Human patient pretreated before exposure to a liver-damaging agent, serum liver enzymes monitored; assay type: in vivo; settings: oral tablet or capsule to at least 10 ng/mL serum gallium before exposure; monitored every 12 hours
Method: A human patient, prior to exposure to a liver-damaging agent, is treated with gallium in the form of gallium maltolate combined with the appropriate standard excipients and/or fillers, in tablet or capsule form. Sufficient gallium maltolate is administered to obtain at least 10 ng/mL gallium in the patient's serum. The amount of gallium maltolate plus excipients necessary to reach this level is dependent on the formulation used and the size of the patient. The patient continues to take the oral medication in an amount to build the level of serum gallium and to maintain the level of at least 10 ng/mL serum.
After a period of up to 72 hours, or when the gallium serum concentration reaches the desired level, the patient is exposed to the liver-damaging agent.
The serum levels of liver enzymes are monitored at the start of the gallium treatment and every 12 hours thereafter. In particular, levels of […] and SGOT are measured. […] Gallium maltolate administration is discontinued after risk of liver damage is terminated.

[4] = Serum gallium quantitation in the adjuvant arthritis study; assay type: in vivo, Male Lewis rats; settings: daily oral 100 or 300 mg/kg, serum harvested one hour after final dosing
Method: as §1, with “Adjuvant arthritic ankles were given scores of 0-5 (0=normal; 5=severe) for inflammation and bone resorption.” left out

[5] = oral 100 and 300 mg/kg/day, adjuvant arthritic rats

Cc1occc(=O)c1[O-].Cc1occc(=O)c1[O-].Cc1occc(=O)c1[O-].[Ga+3] [gallium maltolate]
lobular pattern of liver, histology (FIG. 3A) ([1]; 300 mg/kg/day oral for 21 days, 100x magnification): No accentuation of the lobular pattern
signs of toxicity ([1]; daily oral dosing for 14 days, 100 or 300 mg/kg, Lewis rats): no signs of toxicity
liver pathology, histopathological examination of the livers ([1]; gallium treated versus untreated adjuvant arthritic rats): inhibited the development of liver pathology
liver hypertrophy (adjuvant-induced hepatomegaly) [1, 5]: marked reduction; also recorded: Significant dose-dependent protection
spleen hypertrophy [1, 5]: marked reduction
serum alanine aminotransferase (ALT) levels ([2]; blood 16 hours after Con A, versus the other two test groups): greatly reduced
centrilobular necrosis of the liver, histological assessment ([2]; severity scale 0 to 3): No necrosis
serum levels of liver enzymes (SDOT and SGOT) [3]: do not rise to any significant extent
serum gallium levels attained [4]: dose-dependent
